Measured values as given in patent US7074789B2, “Kinase inhibitors” (Amgen Inc., priority 1999, dated 2006).

What was measured:
Type in all cases: biochemical
ErbB4 = target: T1, ErbB4 (Homo sapiens, UniProt Q15303); experiment: Kinase inhibition assay (33P transfer), ErbB4; details: read-out: ErbB4-1
T1 construct: Kinases are expressed as either kinase domains or full length constructs; made in house

Ret-1 = target: T2, Ret-1 (Homo sapiens, UniProt P07949); experiment: Kinase inhibition assay (33P transfer), Ret; details: Table 6, Ret-1 kinase inhibition class
T2 construct: Kinases are expressed as either kinase domains or full length constructs; made in house

Lyn = target: T3, Lyn (Homo sapiens, UniProt P07948); experiment: Kinase inhibition assay (33P transfer), Lyn; details: Table 6, Lyn-1 kinase inhibition class
T3 construct: Kinases are expressed as either kinase domains or full length constructs; made in house
Outline: (§1)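 Recombinant kinase domains or full-length GST- or His-tagged constructs, from E. coli or baculovirus/High Five cells, sometimes with regulatory polypeptides. Transfer of 33P from ATP to plate-bound poly(Glu,Tyr) 4:1 or poly(Arg,Ser) 3:1 counted by liquid scintillation after phosphoric acid wash; IC50 is the concentration halving incorporation.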

c-Met = target: T4, c-Met (Homo sapiens, UniProt P08581); experiment: Kinase inhibition assay (33P transfer), c-Met; details: Table 2, kinase inhibition class; read-out: Met-1
T4 construct: Kinases are expressed as either kinase domains or full length constructs; made in house
Outline: as §1

ErbB2 = target: T5, ErbB2 (Homo sapiens, UniProt P04626); experiment: Kinase inhibition assay (33P transfer), ErbB2; details: read-out: ErbB2-2
T5 construct: Kinases are expressed as either kinase domains or full length constructs; made in house
Outline: as §1

EPHB4 = target: T6, EPHB4 (Homo sapiens, UniProt P54760); experiment: Kinase inhibition assay (33P transfer), EPHB4; details: read-out: EPHB4-1
T6 construct: Kinases are expressed as either kinase domains or full length constructs; made in house
T6 sequence (P54760 16-987): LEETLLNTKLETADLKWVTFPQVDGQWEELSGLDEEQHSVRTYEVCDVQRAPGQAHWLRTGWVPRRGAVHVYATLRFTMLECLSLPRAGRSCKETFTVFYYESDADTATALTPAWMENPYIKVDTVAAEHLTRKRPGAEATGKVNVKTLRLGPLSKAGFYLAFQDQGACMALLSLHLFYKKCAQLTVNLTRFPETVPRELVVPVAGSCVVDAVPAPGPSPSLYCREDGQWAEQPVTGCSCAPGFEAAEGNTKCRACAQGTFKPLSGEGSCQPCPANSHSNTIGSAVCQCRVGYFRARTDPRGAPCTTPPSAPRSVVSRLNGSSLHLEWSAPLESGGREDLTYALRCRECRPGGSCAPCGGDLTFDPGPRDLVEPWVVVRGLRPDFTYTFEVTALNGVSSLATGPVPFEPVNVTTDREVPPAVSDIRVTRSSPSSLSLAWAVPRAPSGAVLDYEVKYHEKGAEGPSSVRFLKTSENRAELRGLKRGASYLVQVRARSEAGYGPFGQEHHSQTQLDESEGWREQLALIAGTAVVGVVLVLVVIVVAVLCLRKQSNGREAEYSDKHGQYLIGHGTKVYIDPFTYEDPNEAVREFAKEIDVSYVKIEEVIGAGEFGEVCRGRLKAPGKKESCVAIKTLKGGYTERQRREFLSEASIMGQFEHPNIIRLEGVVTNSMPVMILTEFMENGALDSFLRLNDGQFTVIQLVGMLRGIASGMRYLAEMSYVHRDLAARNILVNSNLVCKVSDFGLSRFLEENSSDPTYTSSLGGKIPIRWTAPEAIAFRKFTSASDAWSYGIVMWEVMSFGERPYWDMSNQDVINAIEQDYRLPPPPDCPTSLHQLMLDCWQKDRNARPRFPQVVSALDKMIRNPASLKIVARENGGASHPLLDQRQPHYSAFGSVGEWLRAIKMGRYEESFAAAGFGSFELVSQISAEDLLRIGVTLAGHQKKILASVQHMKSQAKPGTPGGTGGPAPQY

IGFR-1 = target: T7, IGFR-1 (Homo sapiens, UniProt P08069); experiment: Kinase inhibition assay (33P transfer), IGFR-1; details: Table 2, kinase inhibition class
T7 construct: Kinases are expressed as either kinase domains or full length constructs; made in house

AKT = target: T8, AKT (Homo sapiens, UniProt Q9Y243); experiment: Kinase inhibition assay (33P transfer), AKT; details: Table 2, kinase inhibition class; read-out: AKT3-1
T8 construct: Kinases are expressed as either kinase domains or full length constructs; made in house
Outline: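 GST/His-tagged kinase (domain or full length; E. coli or baculovirus) + [33P]ATP on plates coated with poly(Glu,Tyr) 4:1 or poly(Arg,Ser) 3:1; incubate, wash 0.5% H3PO4, add scintillant, count.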

T8 sequence (Q9Y243 whole entry, the tested form may be a part): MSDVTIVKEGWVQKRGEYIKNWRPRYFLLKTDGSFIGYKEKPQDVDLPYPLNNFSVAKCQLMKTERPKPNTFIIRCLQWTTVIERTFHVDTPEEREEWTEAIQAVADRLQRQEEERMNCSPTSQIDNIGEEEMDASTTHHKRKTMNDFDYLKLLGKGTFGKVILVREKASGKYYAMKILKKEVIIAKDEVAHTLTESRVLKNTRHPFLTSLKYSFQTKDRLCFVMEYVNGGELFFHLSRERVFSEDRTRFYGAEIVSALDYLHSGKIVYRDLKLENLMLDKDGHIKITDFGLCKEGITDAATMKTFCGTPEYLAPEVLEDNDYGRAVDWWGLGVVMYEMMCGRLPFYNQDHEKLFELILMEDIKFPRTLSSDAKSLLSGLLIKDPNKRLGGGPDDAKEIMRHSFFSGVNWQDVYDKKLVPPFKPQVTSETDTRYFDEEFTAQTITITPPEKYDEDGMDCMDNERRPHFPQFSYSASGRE
T3 sequence (P07948 whole entry, species assumed, the tested form may be a part): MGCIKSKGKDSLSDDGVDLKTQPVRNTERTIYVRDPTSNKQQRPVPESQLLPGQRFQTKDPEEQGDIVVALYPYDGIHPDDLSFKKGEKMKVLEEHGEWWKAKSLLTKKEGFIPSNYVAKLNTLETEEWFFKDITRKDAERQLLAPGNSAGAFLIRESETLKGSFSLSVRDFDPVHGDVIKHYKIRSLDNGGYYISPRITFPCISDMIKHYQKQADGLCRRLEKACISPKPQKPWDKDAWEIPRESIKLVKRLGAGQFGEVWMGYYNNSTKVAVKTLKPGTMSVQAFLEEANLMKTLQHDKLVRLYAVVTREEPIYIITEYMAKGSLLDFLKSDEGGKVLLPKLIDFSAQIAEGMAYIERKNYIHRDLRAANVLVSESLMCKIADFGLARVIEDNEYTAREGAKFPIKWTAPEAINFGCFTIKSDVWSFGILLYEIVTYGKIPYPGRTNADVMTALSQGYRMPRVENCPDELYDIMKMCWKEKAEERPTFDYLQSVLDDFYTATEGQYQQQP
T1 sequence (Q15303 26-1308, species assumed): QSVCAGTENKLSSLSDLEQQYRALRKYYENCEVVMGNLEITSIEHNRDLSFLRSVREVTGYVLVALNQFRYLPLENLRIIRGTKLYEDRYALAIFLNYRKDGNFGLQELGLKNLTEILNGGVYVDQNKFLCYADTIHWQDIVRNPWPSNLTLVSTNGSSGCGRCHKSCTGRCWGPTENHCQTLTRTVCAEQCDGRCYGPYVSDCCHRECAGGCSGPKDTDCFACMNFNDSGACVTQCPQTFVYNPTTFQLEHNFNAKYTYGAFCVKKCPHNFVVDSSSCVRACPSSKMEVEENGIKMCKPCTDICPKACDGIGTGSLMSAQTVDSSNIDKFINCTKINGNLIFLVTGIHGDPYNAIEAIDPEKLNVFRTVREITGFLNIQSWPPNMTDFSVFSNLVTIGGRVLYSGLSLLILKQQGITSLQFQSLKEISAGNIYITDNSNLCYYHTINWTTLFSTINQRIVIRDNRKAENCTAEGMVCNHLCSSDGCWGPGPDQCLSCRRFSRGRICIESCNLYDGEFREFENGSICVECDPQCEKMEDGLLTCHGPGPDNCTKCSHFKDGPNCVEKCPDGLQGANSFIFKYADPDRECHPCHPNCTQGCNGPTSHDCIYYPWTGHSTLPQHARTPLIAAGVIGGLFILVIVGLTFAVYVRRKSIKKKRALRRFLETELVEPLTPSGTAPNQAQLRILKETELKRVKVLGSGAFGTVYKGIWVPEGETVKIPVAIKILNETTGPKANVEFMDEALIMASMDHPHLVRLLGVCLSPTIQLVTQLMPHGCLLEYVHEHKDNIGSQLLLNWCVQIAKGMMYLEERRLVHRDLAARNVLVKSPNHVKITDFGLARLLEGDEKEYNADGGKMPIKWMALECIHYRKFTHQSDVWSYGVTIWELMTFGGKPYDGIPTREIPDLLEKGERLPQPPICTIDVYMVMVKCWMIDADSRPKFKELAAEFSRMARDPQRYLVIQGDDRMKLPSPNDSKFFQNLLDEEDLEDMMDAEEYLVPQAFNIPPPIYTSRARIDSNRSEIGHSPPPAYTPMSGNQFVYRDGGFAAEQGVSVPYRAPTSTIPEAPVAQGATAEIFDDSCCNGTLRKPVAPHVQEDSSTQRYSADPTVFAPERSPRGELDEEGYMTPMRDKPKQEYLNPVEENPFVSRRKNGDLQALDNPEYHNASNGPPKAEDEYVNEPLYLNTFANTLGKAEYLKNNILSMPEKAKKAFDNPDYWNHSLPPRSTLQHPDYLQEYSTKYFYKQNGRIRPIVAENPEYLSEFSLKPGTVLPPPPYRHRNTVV
T5 sequence (P04626 23-1255, species assumed): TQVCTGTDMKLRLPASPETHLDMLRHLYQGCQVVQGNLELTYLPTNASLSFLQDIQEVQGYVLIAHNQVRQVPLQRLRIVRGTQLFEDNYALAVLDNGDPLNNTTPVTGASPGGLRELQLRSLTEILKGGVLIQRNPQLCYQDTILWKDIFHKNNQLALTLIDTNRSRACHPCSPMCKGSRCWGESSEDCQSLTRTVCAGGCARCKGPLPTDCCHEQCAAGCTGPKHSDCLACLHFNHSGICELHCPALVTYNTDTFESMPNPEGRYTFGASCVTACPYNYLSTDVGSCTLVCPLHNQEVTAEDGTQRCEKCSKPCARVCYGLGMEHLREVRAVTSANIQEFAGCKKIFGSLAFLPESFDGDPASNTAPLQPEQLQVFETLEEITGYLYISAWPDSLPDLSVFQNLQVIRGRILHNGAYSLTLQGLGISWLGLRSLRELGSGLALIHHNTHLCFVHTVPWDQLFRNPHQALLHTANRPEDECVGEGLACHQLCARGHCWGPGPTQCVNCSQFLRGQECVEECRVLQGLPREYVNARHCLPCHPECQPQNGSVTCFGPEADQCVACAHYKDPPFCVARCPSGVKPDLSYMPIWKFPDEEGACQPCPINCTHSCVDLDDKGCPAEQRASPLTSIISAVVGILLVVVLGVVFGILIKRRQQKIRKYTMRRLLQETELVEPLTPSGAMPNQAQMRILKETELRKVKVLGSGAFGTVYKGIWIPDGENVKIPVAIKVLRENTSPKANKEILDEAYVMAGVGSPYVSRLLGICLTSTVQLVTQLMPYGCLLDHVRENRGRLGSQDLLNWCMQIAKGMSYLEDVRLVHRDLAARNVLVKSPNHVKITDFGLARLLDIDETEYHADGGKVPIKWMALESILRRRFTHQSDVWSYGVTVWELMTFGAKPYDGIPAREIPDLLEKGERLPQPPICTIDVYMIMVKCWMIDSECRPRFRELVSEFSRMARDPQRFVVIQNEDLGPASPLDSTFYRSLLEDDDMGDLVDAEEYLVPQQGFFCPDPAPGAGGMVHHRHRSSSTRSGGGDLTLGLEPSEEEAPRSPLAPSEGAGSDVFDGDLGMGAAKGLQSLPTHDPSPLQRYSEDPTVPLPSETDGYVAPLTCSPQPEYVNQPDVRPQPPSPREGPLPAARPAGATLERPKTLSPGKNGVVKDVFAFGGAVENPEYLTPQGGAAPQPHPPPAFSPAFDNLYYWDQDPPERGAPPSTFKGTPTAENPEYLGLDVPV
T2 sequence (P07949 29-1114): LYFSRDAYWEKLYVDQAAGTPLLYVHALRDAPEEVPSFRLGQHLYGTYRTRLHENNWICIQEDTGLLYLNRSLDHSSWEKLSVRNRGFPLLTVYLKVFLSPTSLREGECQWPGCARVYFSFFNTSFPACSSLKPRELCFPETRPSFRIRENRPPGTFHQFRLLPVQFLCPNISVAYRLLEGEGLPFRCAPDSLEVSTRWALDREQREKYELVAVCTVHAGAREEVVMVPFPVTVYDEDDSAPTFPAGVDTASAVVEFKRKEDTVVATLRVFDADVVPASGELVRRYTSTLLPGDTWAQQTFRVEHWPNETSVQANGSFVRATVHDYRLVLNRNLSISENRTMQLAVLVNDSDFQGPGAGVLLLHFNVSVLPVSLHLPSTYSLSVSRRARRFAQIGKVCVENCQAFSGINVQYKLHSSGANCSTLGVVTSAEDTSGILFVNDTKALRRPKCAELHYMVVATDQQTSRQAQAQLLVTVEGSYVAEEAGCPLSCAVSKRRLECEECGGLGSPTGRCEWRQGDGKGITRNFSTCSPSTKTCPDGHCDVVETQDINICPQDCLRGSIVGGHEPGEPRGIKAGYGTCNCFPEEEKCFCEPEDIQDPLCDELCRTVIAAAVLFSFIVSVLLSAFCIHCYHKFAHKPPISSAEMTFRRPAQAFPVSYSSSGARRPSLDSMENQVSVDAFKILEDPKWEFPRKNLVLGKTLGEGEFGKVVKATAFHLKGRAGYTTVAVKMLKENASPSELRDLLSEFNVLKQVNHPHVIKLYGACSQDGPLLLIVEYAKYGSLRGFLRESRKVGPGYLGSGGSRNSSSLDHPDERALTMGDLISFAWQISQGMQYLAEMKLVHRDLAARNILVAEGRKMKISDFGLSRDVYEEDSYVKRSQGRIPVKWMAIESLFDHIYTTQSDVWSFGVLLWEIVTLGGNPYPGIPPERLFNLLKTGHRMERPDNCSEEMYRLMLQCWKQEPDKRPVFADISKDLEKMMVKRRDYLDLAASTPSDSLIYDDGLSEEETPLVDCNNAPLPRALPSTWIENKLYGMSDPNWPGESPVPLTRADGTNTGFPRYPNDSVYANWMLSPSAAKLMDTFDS

SMILES | IC50 (ErbB4) [µM] | IC50 (Ret-1) [µM] | IC50 (Lyn) [µM] | IC50 (c-Met) [µM] | IC50 (ErbB2) [µM] | IC50 (EPHB4) [µM] | IC50 (IGFR-1) [µM] | IC50 (AKT) [µM]
COc1cc(Nc2ncnc(Nc3cccc4ccccc34)n2)cc(OC)c1OC [Compound 98] | > 11.2 | > 11.2 | 0.991 to 5.95 | > 11.2 | < 0.991 | > 11.2 | > 11.2 | > 11.2
COc1cc(Nc2ncnc(Nc3cc(-c4ccccc4)n[nH]3)n2)cc(OC)c1OC [Compound 102] | < 0.954 | 0.954 to 5.72 | < 0.954 | < 0.954 | 0.954 to 5.72 | < 0.954 | < 0.954 | > 10.7
COc1cc(Nc2ncnc(-n3c(N)nc4ccccc43)n2)cc(OC)c1OC [Compound 289] | > 11.4 | 1.02 to 6.1 | 6.1 to 8.9 | 1.02 to 6.1 | > 11.4 | 1.02 to 6.1 | < 1.02 | > 11.4
COc1cc(Nc2ncnc(NC(=O)Nc3ccccc3)n2)cc(OC)c1OC [Compound 852] | > 11.4 | 6.05 to 8.83 | > 11.4 | 6.05 to 8.83 | 6.05 to 8.83 | > 11.4 | < 1.01 | > 11.4
COc1cc(Nc2ncnc(Nc3ccc4[nH]ccc4c3)n2)cc(OC)c1OC [Compound 928] | 1.02 to 6.12 | < 1.02 | < 1.02 | 6.12 to 8.92 | < 1.02 | < 1.02 | < 1.02 | 8.92 to 11.5
